{"source": "ChEMBL document CHEMBL1667742", "about": "“Angiotensin II receptor type 1 (AT1) selective nonpeptidic antagonists--a perspective” (Bioorg Med Chem, 2010)", "key": {"[1]": {"target": "T1, Type-1 angiotensin II receptor (Oryctolagus cuniculus, UniProt P34976)", "T1 sequence (P34976 whole entry)": "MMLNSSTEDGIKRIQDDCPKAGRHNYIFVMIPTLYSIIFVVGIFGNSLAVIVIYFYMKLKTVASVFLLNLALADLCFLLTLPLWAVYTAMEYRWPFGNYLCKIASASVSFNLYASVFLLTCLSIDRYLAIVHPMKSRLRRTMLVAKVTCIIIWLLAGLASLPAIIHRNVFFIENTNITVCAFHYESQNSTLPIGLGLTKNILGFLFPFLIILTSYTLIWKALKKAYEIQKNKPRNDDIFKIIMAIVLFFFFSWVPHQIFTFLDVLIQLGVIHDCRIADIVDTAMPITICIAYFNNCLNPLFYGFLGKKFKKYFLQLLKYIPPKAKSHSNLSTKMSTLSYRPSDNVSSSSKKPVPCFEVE", "experiment": "Antagonist activity at angiotensin AT1 receptor in rabbit aortic strip assessed as inhibition of angiotensin 2-induced contractile response", "format": "functional", "conditions": "read-out: pA2 (converted)"}, "[2]": {"experiment": "Binding affinity to angiotensin AT1 receptor in bovine adrenal cortex membranes"}, "[3]": {"target": "T1, Type-1 angiotensin II receptor", "experiment": "(§1) Antagonist activity at angiotensin AT1 receptor in rabbit aorta", "format": "functional, tissue-based"}, "[4]": {"experiment": "Binding affinity to angiotensin AT1 receptor in rat cortical membranes", "format": "cell membranes"}, "[5]": {"target": "T2, Type-1 angiotensin II receptor (Oryctolagus cuniculus) (UniProt P34976)", "T2 sequence (whole entry)": "T1 sequence (P34976 whole entry)", "experiment": "as §1", "format": "functional, tissue-based"}, "Rattus norvegicus [6]": {"tested_on": "Rattus norvegicus", "experiment": "Antihypertensive activity in renal hypertensive rat model assessed as reduction of mean arterial blood pressure at 30 mg/kg, po", "format": "functional, Artery", "parameters": "scale not given: the % may be the effect or the level left"}, "Rattus norvegicus [7]": {"tested_on": "Rattus norvegicus", "experiment": "Antihypertensive activity in renal hypertensive rat model assessed as reduction of mean arterial blood pressure at 10 mg/kg, po", "format": "functional, Artery", "parameters": "scale not given: the % may be the effect or the level left"}, "Rhesus monkey": {"tested_on": "Rhesus monkey", "experiment": "Antihypertensive activity in salt depleted normotensive monkey model assessed as reduction of blood pressure at 10 mg/kg, po", "format": "functional, Macaca mulatta", "parameters": "scale not given: the % may be the effect or the level left"}, "[8]": {"experiment": "Oral bioavailability in rat", "format": "ADME, organism-based", "conditions": "in vivo"}, "Rattus norvegicus [9]": {"species": "Rattus norvegicus", "experiment": "Antihypertensive activity in renal hypertensive rat model assessed as reduction of blood pressure", "format": "functional"}, "Rattus norvegicus [10]": {"tested_on": "Rattus norvegicus", "experiment": "Antihypertensive activity in po dosed renal hypertensive rat model assessed as reduction of angiotensin 2-induced blood pressure up to 24 hrs", "format": "functional"}, "[11]": {"experiment": "Half life in rat", "format": "ADME, organism-based", "conditions": "in vivo"}, "Rattus norvegicus [12]": {"species": "Rattus norvegicus", "experiment": "(§2) Antagonist activity at angiotensin AT1 receptor in rat liver membranes", "format": "functional, cell membranes", "conditions": "Membrane"}, "Rattus norvegicus [13]": {"tested_on": "Rattus norvegicus", "experiment": "Antihypertensive activity in furosemide-treated sodium depleted rat model assessed as reduction of blood pressure at 10 mg/kg, po", "format": "functional"}, "Rattus norvegicus [14]": {"tested_on": "Rattus norvegicus", "experiment": "Antihypertensive activity in furosemide-treated sodium depleted rat model assessed as reduction of blood pressure at 3 mg/kg, po", "format": "functional"}, "[15]": {"target": "T3, Type-1 angiotensin II receptor (Bos taurus) (UniProt P25104)", "T3 sequence (whole entry)": "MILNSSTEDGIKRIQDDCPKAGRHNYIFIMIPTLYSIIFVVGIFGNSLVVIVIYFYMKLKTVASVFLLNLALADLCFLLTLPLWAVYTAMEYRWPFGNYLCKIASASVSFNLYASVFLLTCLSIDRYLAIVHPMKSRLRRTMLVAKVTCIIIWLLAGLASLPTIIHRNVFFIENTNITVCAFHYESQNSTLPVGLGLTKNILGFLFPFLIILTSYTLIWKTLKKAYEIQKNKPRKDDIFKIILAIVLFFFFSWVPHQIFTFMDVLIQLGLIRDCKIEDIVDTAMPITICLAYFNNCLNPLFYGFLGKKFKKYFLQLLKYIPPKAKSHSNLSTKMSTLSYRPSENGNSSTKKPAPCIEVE", "experiment": "Binding affinity to angiotensin AT1 receptor in bovine adrenal cortex membranes", "format": "cell membranes", "conditions": "Membrane"}, "[16]": {"experiment": "Displacement of radiolabeled angiotensin2 from angiotensin AT1 receptor in rat adrenal cortex membranes", "format": "cell membranes, Membrane"}, "[17]": {"experiment": "Displacement of radiolabeled angiotensin2 from angiotensin AT1 receptor in rat vascular smooth muscle"}, "Rattus norvegicus [18]": {"tested_on": "Rattus norvegicus", "experiment": "Antihypertensive activity in iv dosed renal hypertensive rat model", "format": "functional", "conditions": "read-out: ED50"}, "Rattus norvegicus [19]": {"tested_on": "Rattus norvegicus", "experiment": "Antihypertensive activity in po dosed renal hypertensive rat model", "format": "functional", "conditions": "read-out: ED50"}, "[20]": {"experiment": "Antagonist activity at angiotensin AT1 receptor in rat adrenal cortical membranes", "format": "functional, cell membranes"}, "[21]": {"experiment": "Binding affinity to angiotensin AT1 receptor in rat liver membranes", "format": "cell membranes, Membrane"}, "[22]": {"experiment": "Antagonist activity at angiotensin AT1 receptor in rat kidney homogenates", "format": "functional, tissue-based"}, "[23]": {"target": "T4, Type-1 angiotensin II receptor (Homo sapiens) (UniProt P30556)", "T4 sequence (whole entry)": "T1 sequence (P34976 whole entry) with M2I, A49V, V254I, V270I, H272R, K311R, S349T, V353A", "experiment": "Binding affinity to angiotensin AT1 receptor"}, "[24]": {"experiment": "Antagonist activity at angiotensin AT1 receptor in rat mesenteric artery", "format": "functional"}, "[25]": {"target": "T5, Type-1 angiotensin II receptor (Cavia porcellus, UniProt Q9WV26)", "T5 sequence (Q9WV26 whole entry)": "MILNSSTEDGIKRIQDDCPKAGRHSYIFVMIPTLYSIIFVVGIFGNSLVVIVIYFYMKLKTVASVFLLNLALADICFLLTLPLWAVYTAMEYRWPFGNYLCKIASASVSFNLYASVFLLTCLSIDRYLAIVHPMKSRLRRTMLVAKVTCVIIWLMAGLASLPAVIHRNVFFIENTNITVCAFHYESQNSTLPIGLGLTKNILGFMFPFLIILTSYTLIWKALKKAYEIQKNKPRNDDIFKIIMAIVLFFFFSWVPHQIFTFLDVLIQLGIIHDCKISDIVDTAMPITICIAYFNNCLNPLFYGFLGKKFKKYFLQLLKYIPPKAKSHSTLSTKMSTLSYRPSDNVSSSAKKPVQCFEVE", "experiment": "Antagonist activity at angiotensin AT1 receptor in guinea pig ileum", "format": "functional, tissue-based", "conditions": "read-out: pA2 (converted)"}, "[26]": {"experiment": "as §2", "format": "functional, cell membranes, Membrane"}, "Rattus norvegicus [27]": {"tested_on": "Rattus norvegicus", "experiment": "Antihypertensive activity in po dosed conscious goldblatt hypertensive rat model assessed as reduction of angiotensin 2-induced mean arterial blood pressure", "format": "functional", "conditions": "Artery"}}, "note": "Changes are numbered by the printed parent chain."}
{"smiles": "CCc1nc2c(C)cc(C)nc2n1Cc1ccc2c(c1)C(Cc1nnn[nH]1)c1ccccc1-2", "note": "(centres undefined)", "values": [{"measurement": "Kb", "setting": "[1]", "result": 0.631, "unit": "nM"}, {"measurement": "IC50", "setting": "[2]", "result": 11, "unit": "nM"}]}
{"smiles": "CCCCc1nc2ccn(CC(=O)N(C)C)c(=O)c2n1Cc1ccc(-c2ccccc2-c2nnn[nH]2)cc1", "values": [{"measurement": "IC50", "setting": "[3]", "result": 0.2, "unit": "nM"}, {"measurement": "IC50", "setting": "[4]", "result": 0.7, "unit": "nM"}]}
{"smiles": "CCCCc1ncc(/C=C2/C(=O)N(CCCC)C(=O)N2Cc2csc(C)n2)n1Cc1ccc(C(=O)OC)cc1", "values": [{"measurement": "Activity", "setting": "[5]", "result": 3.8, "unit": "nM"}, {"measurement": "Activity", "setting": "Rattus norvegicus [6]", "result": 40, "unit": "%"}, {"measurement": "Activity", "setting": "Rattus norvegicus [7]", "result": 25, "unit": "%"}, {"measurement": "Activity", "setting": "Rhesus monkey", "result": 27, "unit": "%"}]}
{"smiles": "CCc1nc2c(C)cc(C)nc2n1Cc1ccc2nc(-c3ccccc3NS(=O)(=O)C(F)(F)F)ccc2c1", "note": "[GA0113]", "values": [{"measurement": "bioavailability", "setting": "[8]", "result": 94, "unit": "%"}, {"measurement": "ED25", "setting": "Rattus norvegicus [9]", "result": 0.015, "unit": "mg/kg"}]}
{"smiles": "CCc1cc2c(c(CC)n1)CCC(=O)N2Cc1ccc(-c2ccccc2-c2nnn[nH]2)cc1", "values": [{"measurement": "ED50", "setting": "Rattus norvegicus [10]", "result": 3, "unit": "mg/kg"}]}
{"smiles": "CCc1nc2c(C)cc(C)nc2n1Cc1cccc([C@@H](c2ccccc2)[C@@H](C)C(=O)O)c1", "values": [{"measurement": "bioavailability", "setting": "[8]", "result": 91, "unit": "%"}, {"measurement": "half-life", "setting": "[11]", "result": 9.1, "unit": "h"}, {"measurement": "Activity", "setting": "Rattus norvegicus [12]", "result": 0.069, "unit": "µM"}, {"measurement": "Activity", "setting": "Rattus norvegicus [13]", "result": 39, "unit": "mmHg"}, {"measurement": "Activity", "setting": "Rattus norvegicus [14]", "result": 24, "unit": "mmHg"}]}
{"smiles": "CCCCc1nc(Cl)c(CO)n1Cc1ccc(-c2ccccc2-c2nnn[nH]2)cc1", "note": "[LOSARTAN]", "values": [{"measurement": "Activity", "setting": "[15]", "result": 11.6, "unit": "nM"}, {"measurement": "IC50", "setting": "[16]", "result": 19, "unit": "nM"}, {"measurement": "IC50", "setting": "[17]", "result": 20, "unit": "nM"}, {"measurement": "ED50", "setting": "Rattus norvegicus [18]", "result": 0.78, "unit": "mg/kg"}, {"measurement": "ED50", "setting": "Rattus norvegicus [19]", "result": 0.59, "unit": "mg/kg"}, {"measurement": "IC50", "setting": "[20]", "result": 0.82, "unit": "nM"}, {"measurement": "IC50", "setting": "[21]", "result": 6.7, "unit": "nM"}, {"measurement": "pA2", "setting": "[22]", "result": 7.8}]}
{"smiles": "CCCCc1nc2c(n1Cc1ccc(-c3ccccc3-c3nnn[nH]3)cc1)C(=O)N1C3CCC(CC3)N1C2", "values": [{"measurement": "pKb", "setting": "[23]", "result": 10.6}, {"measurement": "IC50", "setting": "[24]", "result": 1.3, "unit": "nM"}]}
{"smiles": "CCCc1nc2cc(C(=O)OC)[nH]c2n1Cc1ccc(-c2ccccc2C(=O)O)cc1", "values": [{"measurement": "Kb", "setting": "[25]", "result": 15.8, "unit": "nM"}]}
{"smiles": "Cc1nc(C)c2c(n1)N(Cc1ccc(-c3ccccc3-c3nnn[nH]3)cc1)C(=O)CC2", "note": "[TASOSARTAN]", "values": [{"measurement": "IC50", "setting": "[26]", "result": 5.2, "unit": "nM"}, {"measurement": "ED50", "setting": "Rattus norvegicus [27]", "result": 0.58, "unit": "mg/kg"}]}
